Experimental data published in patent publication US12274683B2 (Bayer HealthCare LLC, priority 2019, dated 2025).

Tested on: inflammation/edema induced by carrageenan-injection into the footpads of Sprague Dawley (SD) rats
Experiment: Carrageenan-induced inflammation rat paw test (Example 3)
Conditions: at necropsy about 24 h post-carrageenan, N=10, SE in line below
Procedure: Efficacy evaluation was based on gait analysis, von Frey absolute thresholds and ankle caliper differentials recorded over 24 h after initial carrageenan injection, and paw differential weights following euthanasia of the test subjects.
Experimental Design. Male Sprague Dawley (Envigo RMS, Inc., Indianapolis) were weighed on Day 1 (mean 285 g) and randomized by body weight into treatment groups. On Day 0-1, animals in Groups 3-11 were dosed with topical compounds on 2-minute intervals according to the dose schedules in Table 10. […] Gait and von Frey analyses were conducted at time points of 2 h, 4 h, 6 h, 8 h, and 24 h post-carrageenan injection; ankle caliper measurements were taken immediately following gait assessment. […]
Gait Analysis. […] Gait was scored visually as follows (descriptions refer to diseased leg): • 0=Normal, approximately equal ink staining to normal paw. • 1=Slight limp/pain. […]
Testing began with three applications of the 4.31 hair. […] Responses were recorded as either a 0 (no response) or a 1 (response). […]
Testing was done on hind (heel) portions of the hind paw. Testers monitored the animals for hyper-responding or freezing, in which case animals were left alone until calm.

COc1ccc2cc([C@H](C)C(=O)O)ccc2c1 [Naproxen (oral), Naproxen]
Paw Weight Difference (R − L): ‡0.410 g
Paw Weight Difference (R − L) (listed as oral Naproxen): significantly reduced
